Laboratory results reported in ChEMBL document CHEMBL4706540, “Targeting estrogen receptor α for degradation with PROTACs: A promising approach to overcome endocrine resistance” (Eur J Med Chem, 2020).

Columns and labels:
[1] = molecular target: T1, von Hippel-Lindau disease tumor suppressor/Estrogen receptor (Homo sapiens, UniProt P03372+P40337); assay: Induction of VHL-mediated ERalpha degradation in human MCF7 cells by western blot analysis; type: cell-based
Target sequence in this assay (P40337 whole entry, one chain of several): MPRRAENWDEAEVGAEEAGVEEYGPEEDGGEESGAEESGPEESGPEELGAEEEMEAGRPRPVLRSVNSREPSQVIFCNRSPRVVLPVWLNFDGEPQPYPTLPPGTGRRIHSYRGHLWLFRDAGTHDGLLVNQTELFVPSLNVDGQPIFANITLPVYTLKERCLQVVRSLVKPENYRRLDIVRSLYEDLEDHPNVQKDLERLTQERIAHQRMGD

[2] = molecular target: T1, von Hippel-Lindau disease tumor suppressor/Estrogen receptor; assay: Induction of VHL-mediated ERalpha degradation in human MCF7 cells assessed as maximum degradation by western blot analysis relative to control; type: cell-based
Target sequence in this assay (P40337 whole entry, looked up, one chain of several): as the sequence (P40337 whole entry, one chain of several) above

[3] = molecular target: T1, von Hippel-Lindau disease tumor suppressor/Estrogen receptor; assay: Induction of VHL-mediated ERalpha degradation in human T47D cells by western blot analysis; type: cell-based
Target sequence in this assay (P40337 whole entry, one chain of several): as above

[4] = molecular target: T1, von Hippel-Lindau disease tumor suppressor/Estrogen receptor; assay: Induction of VHL-mediated ERalpha degradation in human T47D cells assessed as maximum degradation by western blot analysis relative to control; type: cell-based
Target sequence in this assay (P40337 whole entry, looked up, one chain of several): as the sequence (P40337 whole entry, one chain of several) above

[5] = tested on: MCF7; assay: Antiproliferative activity against human MCF7 cells incubated for 6 days with replacement of medium every 2 to 3 days by MTT assay; type: functional, cell-based
[6] = tested on: MCF7; assay: Antiproliferative activity against human MCF7 cells incubated for 6 days with replacement of medium every 2 to 3 days by MTT assay relative to control; type: functional; settings: time 6 day
[7] = tested on: T47D; assay: Antiproliferative activity against human T47D cells incubated for 6 days with replacement of medium every 2 to 3 days by MTT assay; type: functional, cell-based
[8] = tested on: T47D; assay: Antiproliferative activity against human T47D cells incubated for 6 days with replacement of medium every 2 to 3 days by MTT assay relative to control; type: functional; settings: time 6 day
[9] = tested on: MCF7; assay: Growth inhibition of human MCF7 cells harboring wild type estrogen receptor incubated for 5 days by PrestoBlue cell viability assay; type: functional, cell-based; settings: MCF7, 120 h
[10] = tested on: MCF7; assay: Growth inhibition of human MCF7 cells harboring ER Y537S mutant incubated for 5 days by PrestoBlue cell viability assay; type: functional, cell-based; settings: MCF7, 120 h
[11] = tested on: MCF7; assay: Growth inhibition of human MCF7 cells harboring ER D538G mutant incubated for 5 days by PrestoBlue cell viability assay; type: functional, cell-based; settings: MCF7, 120 h
[12] = molecular target: T2, Estrogen receptor (Homo sapiens, UniProt P03372); assay: Induction of XIAP-mediated estrogen receptor alpha degradation in human MCF7 cells incubated for 4 hrs by western blot analysis; type: cell-based
T2 sequence (P03372 whole entry): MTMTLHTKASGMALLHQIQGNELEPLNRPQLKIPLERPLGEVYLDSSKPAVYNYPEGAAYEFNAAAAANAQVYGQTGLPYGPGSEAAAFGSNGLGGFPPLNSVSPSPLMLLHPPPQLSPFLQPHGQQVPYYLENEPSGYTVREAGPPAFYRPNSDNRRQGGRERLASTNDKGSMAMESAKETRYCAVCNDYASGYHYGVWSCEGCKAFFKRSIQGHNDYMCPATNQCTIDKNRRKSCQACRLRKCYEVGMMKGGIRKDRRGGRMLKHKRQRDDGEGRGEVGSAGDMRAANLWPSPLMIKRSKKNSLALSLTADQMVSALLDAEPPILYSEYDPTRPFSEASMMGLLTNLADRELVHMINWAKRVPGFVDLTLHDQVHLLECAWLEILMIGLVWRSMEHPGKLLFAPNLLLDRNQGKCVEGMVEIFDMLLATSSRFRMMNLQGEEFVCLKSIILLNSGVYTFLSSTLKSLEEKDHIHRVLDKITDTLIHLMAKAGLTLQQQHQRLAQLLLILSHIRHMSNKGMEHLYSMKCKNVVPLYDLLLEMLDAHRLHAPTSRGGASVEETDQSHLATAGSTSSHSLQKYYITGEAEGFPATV

[13] = tested on: MCF7; assay: Induction of IAP-mediated estrogen receptor alpha degradation in human MCF7 cells at <1 uM by western blot analysis relative to control; type: cell-based; settings: dose microM <1
[14] = tested on: MCF7; assay: Antiproliferative activity against human MCF7 cells incubated for 72 hrs by crystal violet staining based assay; type: functional, cell-based; settings: MCF7, 72 h
[15] = tested on: T47D; assay: Antiproliferative activity against human T47D cells incubated for 72 hrs by crystal violet staining based assay; type: functional, cell-based

SMILES	DC50 [1] [nM]	Imax [2] [%]	IC50 [5] [nM]	IC50 [7] [nM]	DC50 [12] [nM]	Imax [6] [%]	Imax [8] [%]	also measured
Cc1ncsc1-c1ccc([C@H](C)NC(=O)[C@@H]2C[C@@H](O)CN2C(=O)[C@@H](NC(=O)CCCCOc2ccc(/C=N/NC(=O)c3ccc(C(=O)c4c(-c5ccc(O)cc5)sc5cc(O)ccc45)cc3)cc2)C(C)(C)C)cc1	7.7	95	69.1	65.2		60	73	DC50 [3]: 10.3 nM; Imax [4]: > 95%
CCN(CCCCCCCC(=O)N[C@H](C(=O)N1C[C@H](O)C[C@H]1C(=O)N[C@@H](C)c1ccc(-c2scnc2C)cc1)C(C)(C)C)CCOc1ccc(C(=O)c2c(-c3ccc(O)cc3)sc3cc(O)ccc23)cc1								IC50 [9]: 0.8 nM; IC50 [10]: 10.5 nM; IC50 [11]: 6.1 nM
CN[C@@H](C)C(=O)N[C@H](C(=O)N1Cc2cc(OCCOCCOCCOCCOc3ccc(Oc4c(-c5ccc(O)cc5)sc5cc(O)ccc45)cc3)ccc2C[C@H]1C(=O)N[C@@H]1CCCc2ccccc21)C(C)(C)C								Activity [13]: > 50%
CCC(=C(c1ccc(O)cc1)c1ccc(OCCN(C)C(=O)COCCOCCOCCOc2cccc(C(=O)c3csc([C@@H]4CCCN4C(=O)[C@@H](NC(=O)[C@H](C)NC)C4CCCCC4)n3)c2)cc1)c1ccccc1					< 3			IC50 [14]: 15.6 nM; IC50 [15]: 9.6 nM

The next lines start with results.

DC50 [1] [nM]	Imax [2] [%]	IC50 [5] [nM]	IC50 [7] [nM]	DC50 [12] [nM]	SMILES	Imax [6] [%]	Imax [8] [%]	also measured
				< 3	CCC(=C(c1ccc(O)cc1)c1ccc(OCCN(C)C(=O)COCCOCCOCCOc2cccc(O[C@H]3C[C@@H](C(=O)N[C@@H]4CCCc5ccccc54)N(C(=O)[C@@H](NC(=O)[C@H](C)NC)C4CCCCC4)C3)c2)cc1)c1ccccc1			
1.13	98	13.2	17		Cc1ncsc1-c1ccc([C@H](C)NC(=O)[C@@H]2C[C@@H](O)CN2C(=O)[C@@H](NC(=O)CCCCOc2ccc(CNNC(=O)c3ccc(C(=O)c4c(-c5ccc(O)cc5)sc5cc(O)ccc45)cc3)cc2)C(C)(C)C)cc1	69	78	
